Measurements from ChEMBL document CHEMBL1201862, “PubChem BioAssay data set” (2004).
Activity calls are given as the source filed them.

How the values were obtained:
[1] = inhibitors of firefly luciferase expression or activity, dose response, H4 neuroglioma cells, luminescence (AID 1990); assay type: functional, cell-based
[2] = HepG2 cell cytotoxicity, dose response, cytotoxicity control for Shn3 inhibitor project, CellTiter-Glo, cherry-picked (AID 624134); assay type: functional, cell-based
[3] = C. albicans growth with fluconazole, confirmation, fluorescence, retest (AID 2467); assay type: functional, cell-based
[4] = Shn3 3'UTR reporter inhibitors, dose response, cell-based, Clone20 osteoblasts, firefly luciferase, cherry-picked (AID 624132); assay type: functional;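 further: firefly luciferase luminescence from reporter carrying the Shn3 3'UTR in osteoblasts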
[5] = cells; assay type: functional, cell-based
[6] = Luminescence Cell-Based Dose Response HTS to Identify Inhibitors of 5'UTR Stem-Loop Driven Prion Protein mRNA Translation in H4 Neuroglioblastoma Cells. [Related pubchem assays: 1827 (Project Summary), 1813 (Primary HTS)]; assay type: functional
[7] = system: INS1; experiment: beta cell apoptosis inhibitors, cytokine rescue, dose response, luminescence, retest (AID 449756); assay type: functional, cell-based; conditions: Rattus norvegicus;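 further: cell death triggered by IL-1 beta plus TNF-alpha plus IFN-gamma mixture; protective hits raise ATP signal compared with cytokine alone wells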
[8] = cells; assay type: functional, cell-based; remark: listed apart in the source
[9] = target: Heat shock protein HSP 90-alpha (Homo sapiens, UniProt P07900); assay type: functional, organism-based
[10] = inhibitors of SNCA 5'UTR-driven reporter translation, confirmation, H4 neuroglioma cells, luminescence (AID 1988); assay type: functional, cell-based
[11] = NIH-3T3 fibroblast cytotoxicity, dose response, cytotoxicity control, cell-based, fluorescence, Alamar Blue, secondary assay (AID 2327); assay type: functional;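 further: NIH-3T3 mouse fibroblasts cultured with fluconazole at 8 µg/mL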
[12] = target: Nonstructural protein 1 (Influenza A virus, UniProt Q194T2); assay type: functional, Influenza A virus (A/California/07/2009(H1N1))
Sequence of Nonstructural protein 1 (Q194T2 whole entry): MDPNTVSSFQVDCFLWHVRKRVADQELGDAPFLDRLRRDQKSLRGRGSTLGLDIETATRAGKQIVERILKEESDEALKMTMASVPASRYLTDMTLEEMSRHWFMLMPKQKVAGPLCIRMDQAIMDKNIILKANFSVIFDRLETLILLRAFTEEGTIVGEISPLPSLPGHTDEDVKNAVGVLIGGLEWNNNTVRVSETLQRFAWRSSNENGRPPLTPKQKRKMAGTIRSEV

[13] = control 3'UTR Renilla luciferase suppression, dose response, counter-screen for Shn3 inhibitor project, cell-based, Clone20-Shn3RL, cherry-picked (AID 624133); assay type: functional
[14] = target: T1, Microphthalmia-associated transcription factor (Homo sapiens, UniProt O75030); experiment: TRPM1 promoter luciferase signal decrease, dose response, MITF inhibitor project, cell-based, SK-MEL-5, cherry-picked, set 3 (AID 493073); assay type: functional
T1 sequence (O75030 whole entry): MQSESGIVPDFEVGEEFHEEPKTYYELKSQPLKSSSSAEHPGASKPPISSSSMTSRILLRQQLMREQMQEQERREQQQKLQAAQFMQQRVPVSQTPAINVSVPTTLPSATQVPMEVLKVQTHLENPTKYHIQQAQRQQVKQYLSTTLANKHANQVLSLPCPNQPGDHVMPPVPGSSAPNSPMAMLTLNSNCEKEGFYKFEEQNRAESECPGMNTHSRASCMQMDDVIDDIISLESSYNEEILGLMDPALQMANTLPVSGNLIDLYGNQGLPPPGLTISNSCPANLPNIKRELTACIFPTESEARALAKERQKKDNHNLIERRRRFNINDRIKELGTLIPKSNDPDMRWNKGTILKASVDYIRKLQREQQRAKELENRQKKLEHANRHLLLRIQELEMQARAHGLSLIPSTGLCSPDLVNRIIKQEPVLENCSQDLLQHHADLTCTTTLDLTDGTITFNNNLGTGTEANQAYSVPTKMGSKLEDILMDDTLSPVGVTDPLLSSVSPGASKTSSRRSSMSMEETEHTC

[15] = intracellular Trypanosoma cruzi inhibitors in host cells – cell-based, plate reader, cherry-pick samples, set 3, dose response (AID 651818); assay type: functional;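 further: compounds incubated with infected cells for about four days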
[16] = target: T2, Short transient receptor potential channel 4 (Mus musculus, UniProt Q9QUQ5); experiment: mouse TRPC4 channel inhibitors, dose response, cell-based, HEK293 TRPC4/mu-opioid, Fluo-4 calcium (AID 434942); assay type: functional;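 further: potency of inhibitors blocking the TRPC4 calcium response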
T2 sequence (Q9QUQ5 whole entry): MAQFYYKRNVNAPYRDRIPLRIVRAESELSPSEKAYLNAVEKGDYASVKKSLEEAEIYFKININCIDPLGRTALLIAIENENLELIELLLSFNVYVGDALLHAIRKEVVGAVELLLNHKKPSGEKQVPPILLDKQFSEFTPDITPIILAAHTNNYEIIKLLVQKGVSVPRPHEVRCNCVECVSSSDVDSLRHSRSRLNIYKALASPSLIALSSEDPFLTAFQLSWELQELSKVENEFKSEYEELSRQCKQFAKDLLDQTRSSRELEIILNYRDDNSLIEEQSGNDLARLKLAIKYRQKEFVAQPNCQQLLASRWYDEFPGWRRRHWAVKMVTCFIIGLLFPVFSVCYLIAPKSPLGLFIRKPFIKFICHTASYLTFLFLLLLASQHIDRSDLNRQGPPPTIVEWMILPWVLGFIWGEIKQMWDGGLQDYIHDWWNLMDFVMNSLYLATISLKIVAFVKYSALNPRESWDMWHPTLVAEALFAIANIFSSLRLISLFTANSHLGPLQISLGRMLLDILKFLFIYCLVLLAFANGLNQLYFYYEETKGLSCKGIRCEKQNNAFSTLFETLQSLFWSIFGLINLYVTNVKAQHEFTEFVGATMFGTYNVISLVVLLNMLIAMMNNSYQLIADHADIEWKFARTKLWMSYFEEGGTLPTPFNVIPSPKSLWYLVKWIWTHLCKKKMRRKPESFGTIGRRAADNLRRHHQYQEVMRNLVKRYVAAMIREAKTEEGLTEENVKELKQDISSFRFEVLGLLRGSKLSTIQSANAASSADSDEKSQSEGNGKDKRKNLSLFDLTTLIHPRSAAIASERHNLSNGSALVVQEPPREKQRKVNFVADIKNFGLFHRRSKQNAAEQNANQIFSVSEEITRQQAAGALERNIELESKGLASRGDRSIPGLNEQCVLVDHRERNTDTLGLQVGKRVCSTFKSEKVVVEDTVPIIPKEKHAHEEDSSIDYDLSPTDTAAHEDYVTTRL

[17] = target: Cytochrome P450 3A4 (Homo sapiens, UniProt P08684); conditions: Potency;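 further: confirmatory qHTS run detecting inhibitors and substrates of CYP3A4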
Sequence of Cytochrome P450 3A4 (P08684 whole entry): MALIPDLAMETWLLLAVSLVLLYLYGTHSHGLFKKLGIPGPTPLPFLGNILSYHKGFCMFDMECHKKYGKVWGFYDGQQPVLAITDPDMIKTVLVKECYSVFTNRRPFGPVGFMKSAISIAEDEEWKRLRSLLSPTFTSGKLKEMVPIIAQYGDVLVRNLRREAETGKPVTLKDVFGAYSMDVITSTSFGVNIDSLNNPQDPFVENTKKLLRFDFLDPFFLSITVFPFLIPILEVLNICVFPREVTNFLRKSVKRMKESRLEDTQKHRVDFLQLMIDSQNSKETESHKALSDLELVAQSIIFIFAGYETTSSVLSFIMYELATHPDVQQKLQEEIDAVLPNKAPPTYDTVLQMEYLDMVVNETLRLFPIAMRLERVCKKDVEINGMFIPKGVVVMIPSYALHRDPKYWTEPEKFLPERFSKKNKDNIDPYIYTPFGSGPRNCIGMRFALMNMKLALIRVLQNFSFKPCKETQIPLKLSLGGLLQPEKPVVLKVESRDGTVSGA

[18] = target: T3, Polyadenylate-binding protein 1 (Homo sapiens, UniProt P11940); experiment: PABP1 MLLE–PAM2 interaction inhibitors, dose response, miRNA deadenylation inhibitor project, biochemical, fluorescence polarization, Cy5-PAM2 peptide, secondary (AID 602260); assay type: functional; conditions: read-out: IC50_Mean
T3 sequence (P11940 whole entry): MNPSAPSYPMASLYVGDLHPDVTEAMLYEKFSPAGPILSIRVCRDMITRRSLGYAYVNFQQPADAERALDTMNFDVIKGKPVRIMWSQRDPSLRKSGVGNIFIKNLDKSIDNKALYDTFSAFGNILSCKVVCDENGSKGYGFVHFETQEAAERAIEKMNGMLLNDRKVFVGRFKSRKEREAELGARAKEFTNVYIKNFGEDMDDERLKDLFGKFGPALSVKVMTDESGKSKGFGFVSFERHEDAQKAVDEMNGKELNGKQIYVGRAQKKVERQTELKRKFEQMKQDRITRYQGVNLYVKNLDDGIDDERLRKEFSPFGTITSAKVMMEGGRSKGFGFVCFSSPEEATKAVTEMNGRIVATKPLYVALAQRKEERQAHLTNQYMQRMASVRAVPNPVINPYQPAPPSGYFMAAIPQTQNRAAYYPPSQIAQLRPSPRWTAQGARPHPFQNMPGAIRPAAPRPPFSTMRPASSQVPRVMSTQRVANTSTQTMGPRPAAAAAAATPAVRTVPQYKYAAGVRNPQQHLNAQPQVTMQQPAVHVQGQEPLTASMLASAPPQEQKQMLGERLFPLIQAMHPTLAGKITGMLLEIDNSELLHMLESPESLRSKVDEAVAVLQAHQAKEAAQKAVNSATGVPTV

[19] = target: Genome polyprotein (dengue virus type 2, UniProt P29990); experiment: Dengue-2 NS5 methyltransferase inhibitors, primary screen, biochemical, confirmation dose response (AID 588689); assay type: functional
Sequence of Genome polyprotein (P29990 2492-3391 limits assumed): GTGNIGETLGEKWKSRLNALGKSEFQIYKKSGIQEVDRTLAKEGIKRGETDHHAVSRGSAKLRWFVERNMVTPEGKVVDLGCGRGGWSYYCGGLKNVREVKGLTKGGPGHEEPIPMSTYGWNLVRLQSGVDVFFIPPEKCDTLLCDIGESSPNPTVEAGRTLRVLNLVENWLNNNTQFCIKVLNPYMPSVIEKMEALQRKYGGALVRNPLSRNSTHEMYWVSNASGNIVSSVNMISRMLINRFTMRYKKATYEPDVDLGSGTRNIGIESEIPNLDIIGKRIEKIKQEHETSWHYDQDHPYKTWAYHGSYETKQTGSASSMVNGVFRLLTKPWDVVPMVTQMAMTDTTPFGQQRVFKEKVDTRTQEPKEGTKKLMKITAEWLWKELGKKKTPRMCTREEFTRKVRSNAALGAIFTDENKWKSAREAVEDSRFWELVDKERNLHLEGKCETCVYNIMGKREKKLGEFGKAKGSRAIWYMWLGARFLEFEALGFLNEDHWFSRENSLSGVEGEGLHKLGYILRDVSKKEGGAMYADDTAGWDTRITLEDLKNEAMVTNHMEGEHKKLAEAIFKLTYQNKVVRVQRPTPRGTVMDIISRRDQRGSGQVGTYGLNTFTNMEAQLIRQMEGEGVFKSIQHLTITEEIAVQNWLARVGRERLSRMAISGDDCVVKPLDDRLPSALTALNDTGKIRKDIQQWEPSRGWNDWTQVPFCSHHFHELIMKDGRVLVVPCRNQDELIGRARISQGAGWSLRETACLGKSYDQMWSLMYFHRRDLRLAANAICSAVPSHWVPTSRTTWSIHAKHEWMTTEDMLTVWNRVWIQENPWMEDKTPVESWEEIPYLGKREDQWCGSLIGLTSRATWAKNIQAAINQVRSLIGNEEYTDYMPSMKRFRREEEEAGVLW

[20] = target: T3, Polyadenylate-binding protein 1; experiment: PABP1 MLLE–PAM2 binding inhibitor potency, dose response, biochemical, fluorescence polarization, FITC-PAM2 peptide (AID 602259); assay type: functional; conditions: read-out: IC50_Mean
[21] = inhibitors of HIV Env-driven cell fusion, dose response, cherry-pick (AID 652057); assay type: functional, cell-based
[22] = inhibitors of clade B AD8 Env fusion, dose response, cell-based, cherry-pick (AID 652062); assay type: functional;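 further: luciferase signal from cell-cell fusion driven by HIV-1 clade B AD8 Env; potency is for inhibitors of fusion seen as a drop in luminescence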
[23] = system: BJ; experiment: cells; assay type: functional, cell-based; conditions: Homo sapiens
[24] = system: BJ; experiment: cytotoxicity toward BJ-TERT-LT-ST fibroblasts, dose response, cell-based, RAS-independent, luminescence (AID 1935); assay type: functional; conditions: Homo sapiens;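 further: BJ fibroblasts immortalized with TERT plus LT and ST oncogenes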
[25] = cytotoxicity toward DRD oncogenic fibroblasts, dose response, cell-based, non-viral oncogenic, luminescence (AID 1934); assay type: functional; conditions: Homo sapiens
[26] = system: BJ; experiment: cytotoxicity toward BJ-TERT fibroblasts, dose response, cell-based, RAS-independent, luminescence (AID 1933); assay type: functional; conditions: Homo sapiens
[27] = cytotoxicity in OVCAR8 ovarian cancer cells, dose response, PAX8 project, cell-based, plate reader, dry powder samples (AID 743197); assay type: functional; conditions: OVCAR-8
[28] = NIH:OVCAR-3 ovarian cancer cell cytotoxicity, dose response, PAX8 inhibitor project, plate reader, dry powder samples (AID 743044); assay type: functional, cell-based
[29] = target: Paired box protein Pax-8 (Homo sapiens, UniProt Q06710); experiment: inhibitors of PAX8-driven TPO luciferase reporter, dose response, RMG-I cells, cherry-pick (AID 687027); assay type: functional, cell-based;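 further: luciferase reporter driven by Pax8 target thyroperoxidase promoter measured by SteadyGlo luminescence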
Sequence of Paired box protein Pax-8 (Q06710 whole entry): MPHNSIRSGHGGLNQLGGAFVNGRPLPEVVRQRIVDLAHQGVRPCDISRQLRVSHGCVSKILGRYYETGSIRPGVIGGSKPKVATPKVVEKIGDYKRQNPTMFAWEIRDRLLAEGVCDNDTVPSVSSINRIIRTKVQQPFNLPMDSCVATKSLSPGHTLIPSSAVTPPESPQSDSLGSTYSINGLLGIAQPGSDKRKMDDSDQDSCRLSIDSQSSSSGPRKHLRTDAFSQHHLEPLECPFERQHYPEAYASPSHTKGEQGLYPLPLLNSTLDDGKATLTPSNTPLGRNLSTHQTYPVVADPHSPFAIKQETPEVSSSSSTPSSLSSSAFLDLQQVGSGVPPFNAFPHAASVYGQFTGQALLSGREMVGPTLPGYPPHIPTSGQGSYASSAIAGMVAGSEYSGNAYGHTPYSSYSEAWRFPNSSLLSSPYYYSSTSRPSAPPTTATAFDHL

## Oc1c(C(Nc2cccc(C(F)(F)F)c2)c2ccncc2)ccc2cccnc12 (centres undefined)
[1]
  EC50: 11.9 µM (active)
[2]
  AC50: 7.21 µM (active)
[3]
  EC50: 3.42 µM (active)
[4]
  AC50: 5.8 µM (active)
[5]
  EC50: 9.32 µM (active)
[6]
  EC50: 15.3 µM (active)
[7]
  AC50: 3.82 µM (active)
[8]
  EC50: > 350 µM (not active)
[9]
  AC50: 6.48 µM (active)
[10]
  EC50: 9.42 µM (active)
[11]
  EC50: 18.3 µM (active)
[12]
  IC50: 8.76 µM (active)
[13]
  AC50: 6.9 µM (active)

## CCCCNC(=O)Nc1ccc(C2SCCS2)cc1
[14]
  AC50: 35.3 µM (active)

## C[C@H]1CN([C@@H](C)CO)C(=O)Cc2cc(NC(=O)Nc3ccccc3)ccc2O[C@H]1CN(C)Cc1ccc(C(=O)Nc2ccccc2N)cc1
[15]
  AC50: 2.93 µM (active)

## O=C1[C@@H]2C(c3cccnc3)=NO[C@@H]2C(=O)N1c1ccc(Br)cc1
[9]
  AC50: 5.67 µM (active)

## CCOc1ccc(Cl)cc1/C=N/O
[16]
  EC50: 4.22 µM (active)

## Cc1ccc([N+](=O)[O-])cc1N
[17]
  AC50: 31.6 µM (inconclusive)

## O=C(O)c1sccc1S(=O)(=O)Nc1ccc(Cl)cc1
[17]
  AC50: 7.94 µM (inconclusive)

## O=C1c2cc(Cl)ccc2-c2c(O)cc(Cl)cc21
[9]
  AC50: 2.08 µM (active)

## C[C@@H]1CN([C@@H](C)CO)C(=O)c2cc(NS(=O)(=O)c3ccc(Cl)cc3)ccc2O[C@H]1CN(C)Cc1ccc(Cl)c(Cl)c1
[15]
  AC50: 3.37 µM (active)

## C[C@@H]1CN([C@H](C)CO)C(=O)c2cccc(NC(=O)Nc3ccc(C(F)(F)F)cc3)c2O[C@@H]1CN(C)Cc1ccc2c(c1)OCO2
[15]
  AC50: 2.54 µM (active)

## COC(=O)[C@@H]1C[C@@]2(O)[C@@H](O)[C@@H](O)[C@@H](O)C[C@H]2N1Cc1cc(F)ccc1F
[17]
  AC50: 25.1 µM (inconclusive)

## C[C@H](CO)N1C[C@H](C)[C@@H](CN(C)Cc2ccc(Oc3ccccc3)cc2)Oc2c(NC(=O)Nc3ccccc3)cccc2C1=O
[15]
  AC50: 2.17 µM (active)

## C[C@H]1CN([C@@H](C)CO)C(=O)c2cc(NC(=O)Nc3cccc4ccccc34)ccc2O[C@@H]1CN(C)Cc1ccc(Cl)c(Cl)c1
[15]
  AC50: 3.43 µM (active)

## COc1c(CC=C(C)C)c2c(c3oc(=O)c(-c4ccc(O)cc4)c(O)c13)C=CC(C)(C)O2 [SCANDENIN]
[17]
  AC50: 20 µM (inconclusive)

## N#Cc1c(N)sc(=S)c2c1CCCC2
[18]
  IC50: > 66 µM (inactive)
[19]
  IC50: 90.8 µM (active)
[20]
  IC50: 57.4 µM (inactive)

## CC1CCc2c(sc(/N=C/N(C)C)c2C#N)C1 (centres undefined)
[16]
  EC50: 2.99 µM (active)

## CC(=O)N1[C@H](C)C=C[C@]1(Cc1ccccc1)C(=O)NCc1ccccn1
[17]
  AC50: 12.6 µM (inconclusive)

## CC(C)c1nc(CNC(=O)CC2C(=O)NCCN2Cc2ccc(F)cc2Cl)cs1 (centres undefined)
[16]
  EC50: 1.88 µM (active)

## C[C@H](CO)N1C[C@H](C)[C@H](CN(C)C(=O)C2CC2)OCc2ccccc2-c2c(n(C)c3ccccc23)C1=O
[21]
  AC50: 0.426 µM (active)
[22]
  AC50: 0.836 µM (active)

## CC(=O)NNc1ccccc1
[17]
  AC50: 31.6 µM (inconclusive)

## Cc1cc(C(=O)N/N=C\c2cc(C(C)(C)C)ccc2O)[nH]n1
[16]
  EC50: 6.68 µM (active)

## COc1cccc(/C=C2/C(=O)NN(c3ccc(F)cc3)C2=O)c1
[19]
  IC50: 38.1 µM (active)

## COc1cccc(NC(=O)CCC(=O)N2CC(C)Oc3ccc(C)cc32)c1 (centres undefined)
[16]
  EC50: 0.531 µM (active)

## CCC1C=C(c2ccccc2)C=CN=C1N(CC)CC (centres undefined)
[16]
  EC50: 4.22 µM (active)

## O=C(NC(=S)NNC(=O)c1cnccn1)c1ccc(Cl)cc1
[1]
  EC50: 11.9 µM (active)
[3]
  EC50: 1.69 µM (active)
[23]
  EC50: > 150 µM (not active)
[6]
  EC50: 9.78 µM (active)
[24]
  EC50: > 150 µM (not active)
[10]
  EC50: 9.3 µM (active)
[11]
  EC50: 5.78 µM (active)
[12]
  IC50: 3.01 µM (active)
[25]
  EC50: 25.5 µM (active)
[26]
  EC50: 22.8 µM (active)

## C[C@H](CO)N1C[C@H](C)[C@H](CN(C)C(=O)Nc2ccc(C(F)(F)F)cc2)Oc2ccc(NC(=O)Nc3ccc(C(F)(F)F)cc3)cc2C1=O
[15]
  AC50: 4.23 µM (active)

## C[C@@H]1CN([C@H](C)CO)C(=O)c2cccc(NC(=O)Nc3cccc4ccccc34)c2O[C@@H]1CN(C)S(=O)(=O)c1ccc(Cl)cc1
[27]
  AC50: 56.3 µM (active)
[28]
  AC50: 43.3 µM (active)
[29]
  AC50: 5.69 µM (active)

## COc1cc2cc(Oc3ccc4ccc(=O)oc4c3)c(=O)oc2cc1O [DAPHNORETIN]
[17]
  AC50: 0.501 µM (inconclusive)
